Experimental data: patent publication US4558064A, “2-Azasfiro[4.(3+N)]-3-carboxylic acid derivatives, a process for their preparation, agents containing these derivatives and their use” (Hoechst Aktiengesellschaft, priority 1982, dated 1985)

Tested on: pressor response induced by angiotensin I
Assay: suppression of the pressor response in the rat induced by 310 ng of angiotensin I
Assay type: in vivo
Conditions: 30 minutes after administration, 310 ng angiotensin I
Procedure: In animal experiments, the following effects, for example, were obtained: the suppression of the pressor response in the rat induced by 310 ng of angiotensin I was measured.
(a) i.v. administration (30 minutes after administration)
(b) i.d. administration (30 minutes after administration)

[1] = i.v. administration, dose 100 μg/kg

| Compound | % inhibition of the pressor response induced by angiotensin I (i.d. administration, dose 1 mg/kg) | % inhibition of the pressor response induced by angiotensin I [1] | % inhibition of the pressor response induced by angiotensin I (i.d. administration, dose 0.1 mg (so in the source)) |
| --- | --- | --- | --- |
| CCOC(=O)C(CCc1ccccc1)NC(C)C(=O)N1CC2(CCCC2)CC1C(=O)O (stereo not drawn) | 85-95% | 95% | – |
| CCOC(=O)C(CCc1ccccc1)NC(C)C(=O)N1CC2(CCCCC2)CC1C(=O)O (stereo not drawn) | – | 95% | 60-70% |
| CCOC(=O)C(CC(=O)c1ccccc1)NC(C)C(=O)N1CC2(CCCCC2)CC1C(=O)O (stereo not drawn) [N-(1-Carboethoxy-3-oxo-3-phenylpropyl)alanyl-2-azaspiro[4.5]decane-3-carboxylic acid] | – | 95% | – |
| CC(NC(CCc1ccccc1)C(=O)O)C(=O)N1CC2(CCCCCC2)CC1C(=O)O (stereo not drawn) | – | 95% | – |
